For one assay, the target named is Pim3 kinase (Homo sapiens (Human), UniProt Q86V86). The settings on record: read-out: Pim3 IC50.
The next assay deals with Pim1 kinase (Homo sapiens (Human), UniProt P11309). The settings on record: read-out: Pim1 IC50.

pIC50: −log10 of the molar value.

This is an account of results in patent publication US8592455B2 (priority 2008, dated 2013).

Sequence of Pim1 kinase (P11309 whole entry): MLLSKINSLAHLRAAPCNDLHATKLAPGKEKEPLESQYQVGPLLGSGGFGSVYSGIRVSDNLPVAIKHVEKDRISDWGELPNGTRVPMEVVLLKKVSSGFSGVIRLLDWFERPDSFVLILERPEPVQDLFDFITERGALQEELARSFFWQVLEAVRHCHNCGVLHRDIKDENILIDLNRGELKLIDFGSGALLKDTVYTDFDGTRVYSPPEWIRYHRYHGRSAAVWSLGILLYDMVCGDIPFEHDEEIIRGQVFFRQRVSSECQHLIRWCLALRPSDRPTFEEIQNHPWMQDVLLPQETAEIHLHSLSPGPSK

As a reminder, the pIC50 is the negative decadic logarithm of the IC50, by convention in mol/L. Regarding `CCc1ccc(F)c(-c2cccc(C(=O)Nc3cnccc3[C@@H]3CCC[C@H](N)C3)n2)c1F` [Example 19, N-(4-((1R,3S)-3-aminocyclohexyl)pyridin-3-yl)-6-(3-ethyl-2,6-difluorophenyl)picolinamide], the pIC50 at Pim3 kinase is 8.15; at Pim1 kinase, 8.52.

For `N[C@H]1CCC[C@@H](c2ccncc2NC(=O)c2cccc(-c3c(F)cc(O)cc3F)n2)C1` [Example 8, N-(4-((1R,3S)-3-aminocyclohexyl)pyridin-3-yl)-6-(2,6-difluoro-4-hydroxyphenyl)picolinamide], the pIC50 was 8.70 on Pim3 kinase and 9.00 on Pim1 kinase.

For `N[C@@H]1C[C@H](c2ccncc2NC(=O)c2ccc(F)c(C3CCCCC3)n2)C[C@H](C(F)(F)F)C1` [Example 111, N-(4-((1R,3R,5S)-3-amino-5-(trifluoromethyl)cyclohexyl)pyridin-3-yl)-6-cyclohexyl-5-fluoropicolinamide], the pIC50 at Pim3 kinase is 7.96; on Pim1 kinase, 8.70.

`C[C@@H]1C[C@H](N)C[C@H](c2ccncc2NC(=O)c2cccc(-c3c(F)cccc3F)n2)C1` [Example 63, N-(4-((1R,3S,5S)-3-amino-5-methylcyclohexyl)pyridin-3-yl)-6-(2,6-difluorophenyl)picolinamide]: the pIC50 at Pim3 kinase was 8.70; at Pim1 kinase, 9.00.

Turning to `CCc1ccc(F)c(-c2cccc(C(=O)Nc3cnccc3[C@H]3C[C@@H](N)[C@H](O)[C@@H](C)C3)n2)c1F` [Example 15, N-(4-((1R,3R,4R,5S)-3-amino-4-hydroxy-5-methylcyclohexyl)pyridin-3-yl)-6-(3-ethyl-2,6-difluorophenyl)picolinamide], the pIC50 at Pim3 kinase was 8.22; on Pim1 kinase, 8.52.

In the case of `C[C@@H]1C[C@H](N)C[C@H](c2ccncc2NC(=O)c2cccc(-c3ccc(O)cc3F)n2)C1` [Example 37, N-(4-((1R,3S,5S)-3-amino-5-methylcyclohexyl)pyridin-3-yl)-6-(2-fluoro-4-hydroxyphenyl)picolinamide], the pIC50 was 8.30 on Pim3 kinase and 8.70 at Pim1 kinase.

Take `N[C@H]1CCC[C@@H](c2ccncc2NC(=O)c2cccc(-c3cc(O)ccc3F)n2)C1` [Example 7, N-(4-((1R,3S)-3-aminocyclohexyl)pyridin-3-yl)-6-(2-fluoro-5-hydroxyphenyl)picolinamide]: the pIC50 on Pim3 kinase was 8.70; on Pim1 kinase it was 9.00.

As for `CCCOc1ccc(F)c(-c2nc(C(=O)Nc3cnccc3[C@@H]3CC[C@H](O)[C@H](N)C3)c(N)cc2F)c1` [Example 67, 3-amino-N-(4-((1R,3R,4S)-3-amino-4-hydroxycyclohexyl)pyridin-3-yl)-5-fluoro-6-(2-fluoro-5-propoxyphenyl)picolinamide], the pIC50 at Pim3 kinase was 8.52; at Pim1 kinase, 9.00.

Regarding `COc1ccc(F)c(-c2nc(C(=O)Nc3cnccc3[C@H]3C[C@@H](N)[C@H](O)[C@@H](C)C3)ccc2F)c1F` [Example 47, N-(4-((1R,3R,4R,5S)-3-amino-4-hydroxy-5-methylcyclohexyl)pyridin-3-yl)-6-(2,6-difluoro-3-methoxyphenyl)-5-fluoropicolinamide], the negative logarithm of the IC50 (pIC50) at Pim3 kinase is 8.52; at Pim1 kinase, 9.00.

With `N[C@H]1CCC[C@@H](c2ccncc2NC(=O)c2ccc(F)c([C@H]3CC[C@@H](O)CC3)n2)C1` [Example 53, N-(4-((1R,3S)-3-aminocyclohexyl)pyridin-3-yl)-5-fluoro-6-((1s,4s)-4-hydroxycyclohexyl)picolinamide], the results for the pIC50 at Pim3 kinase and on Pim1 kinase were 7.19 and 8.00, respectively.

`C[C@@H]1C[C@H](N)C[C@H](c2ccncc2NC(=O)c2nc(-c3c(F)cccc3F)c(F)cc2N)C1` [Example 51, 3-amino-N-(4-((1R,3S,5S)-3-amino-5-methylcyclohexyl)pyridin-3-yl)-6-(2,6-difluorophenyl)-5-fluoropicolinamide]: the pIC50 on Pim3 kinase and at Pim1 kinase was 9.00 each time.

For the compound `C[C@@H]1C[C@H](N)C[C@H](c2ccncc2NC(=O)c2cccc(-c3ccccc3F)n2)C1` [Example 62, N-(4-((1R,3S,5S)-3-amino-5-methylcyclohexyl)pyridin-3-yl)-6-(2-fluorophenyl)picolinamide], the pIC50 at Pim3 kinase was 8.52; at Pim1 kinase, 9.00.

Regarding `C[C@@H]1CN(c2ccncc2NC(=O)c2nc(-c3c(F)cccc3F)ccc2N)C[C@@H](N)[C@H]1O` [Example 103, 3-amino-N-(4-((3R,4S,5R)-3-amino-4-hydroxy-5-methylpiperidin-1-yl)pyridin-3-yl)-6-(2,6-difluorophenyl)picolinamide], the pIC50 is 8.40 at Pim3 kinase and 8.70 on Pim1 kinase.

For the compound `Nc1ccc(-c2c(F)cccc2F)nc1C(=O)Nc1cnccc1C1=C[C@@H](N)[C@@H](O)CC1` [Example 93], the results for the negative-log IC50 (pIC50) at Pim3 kinase and on Pim1 kinase were 8.30 and 9.00, respectively.

For `Cc1ccc(F)c(-c2cccc(C(=O)Nc3cnccc3[C@H]3C[C@@H](N)[C@@H](O)[C@@H](C)C3)n2)c1` [Example 74, N-(4-((1R,3R,4S,5S)-3-amino-4-hydroxy-5-methylcyclohexyl)pyridin-3-yl)-6-(2-fluoro-5-methylphenyl)picolinamide], the pIC50 was 8.40 on Pim3 kinase and 9.00 at Pim1 kinase.

Turning to `N[C@H]1CCC[C@@H](c2ccncc2NC(=O)c2ccc(F)c(-c3cc(O)ccc3F)n2)C1` [Example 33, N-(4-((1R,3S)-3-aminocyclohexyl)pyridin-3-yl)-5-fluoro-6-(2-fluoro-5-hydroxyphenyl)picolinamide], the pIC50 at Pim3 kinase was 8.52; at Pim1 kinase, 9.00.

Consider `N[C@H]1CCC[C@@H](c2ccncc2NC(=O)c2ccc(F)c(-c3ccc(O)cc3F)n2)C1` [Example 9, N-(4-((1R,3S)-3-aminocyclohexyl)pyridin-3-yl)-5-fluoro-6-(2-fluoro-4-hydroxyphenyl)picolinamide], for which the values for the pIC50 at Pim3 kinase and at Pim1 kinase were 8.70 and 9.00, respectively.

For the compound `C[C@@H]1C[C@H](N)C[C@H](c2ccncc2NC(=O)c2cccc(-c3cc(O)ccc3F)n2)C1` [Example 35, N-(4-((1R,3S,5S)-3-amino-5-methylcyclohexyl)pyridin-3-yl)-6-(2-fluoro-5-hydroxyphenyl)picolinamide], the pIC50 at Pim3 kinase was 8.52; at Pim1 kinase, 9.00.

Take `C[C@@H]1C[C@H](N)C[C@H](c2ccncc2NC(=O)c2ccc(F)c(-c3ccc(O)cc3F)n2)C1` [Example 38, N-(4-((1R,3S,5S)-3-amino-5-methylcyclohexyl)pyridin-3-yl)-5-fluoro-6-(2-fluoro-4-hydroxyphenyl)picolinamide]: the pIC50 is 8.52 at Pim3 kinase and 9.00 at Pim1 kinase.

Take `Cc1ccc(F)c(-c2nc(C(=O)Nc3cnccc3N3C[C@@H](N)[C@H](O)[C@@H](C)C3)ccc2F)c1F` [Example 22, N-(4-((3R,4R,5S)-3-amino-4-hydroxy-5-methylpiperidin-1-yl)pyridin-3-yl)-6-(2,6-difluoro-3-methylphenyl)-5-fluoropicolinamide]: the pIC50 is 8.52 at Pim3 kinase and 9.00 at Pim1 kinase.

In the case of `Cc1ccc(F)c(-c2cccc(C(=O)Nc3cnccc3[C@H]3C[C@@H](N)C[C@@H](C(F)(F)F)C3)n2)c1` [Example 108, N-(4-((1R,3R,5S)-3-amino-5-(trifluoromethyl)cyclohexyl)pyridin-3-yl)-6-(2-fluoro-5-methylphenyl)picolinamide], the results for the negative logarithm of the IC50 (pIC50) on Pim3 kinase and at Pim1 kinase were 8.52 and 9.00, respectively.

Turning to `Nc1ccc(-c2c(F)cccc2F)nc1C(=O)Nc1cnccc1C1=CC(N)C(O)CC1` (stereo not drawn) [Example 92, 3-amino-N-(4-(trans)-3-amino-4-hydroxycyclohex-1-enyl)pyridin-3-yl)-6-(2,6-difluorophenyl)picolinamide], the pIC50 is 8.30 on Pim3 kinase and 8.70 at Pim1 kinase.

For the compound `COc1cc(F)c(-c2nc(C(=O)Nc3cnccc3[C@H]3C[C@@H](N)CC(C)(C)C3)ccc2F)c(F)c1` [Example 123, N-(4-((1R,5R)-5-amino-3,3-dimethylcyclohexyl)pyridin-3-yl)-6-(2,6-difluoro-4-methoxyphenyl)-5-fluoropicolinamide], the pIC50 is 8.70 on Pim3 kinase and 9.00 on Pim1 kinase.

Turning to `C[C@H]1C[C@@H](c2ccncc2NC(=O)c2ccc(F)c(-c3cc(O)ccc3F)n2)C[C@@H](N)[C@@H]1O` [Example 5, N-(4-((1R,3R,4R,5S)-3-amino-4-hydroxy-5-methylcyclohexyl)pyridin-3-yl)-5-fluoro-6-(2-fluoro-5-hydroxyphenyl)picolinamide], the figures for the pIC50 at Pim3 kinase and at Pim1 kinase were 8.05 and 8.52, respectively.

For `N[C@H]1CCC[C@@H](c2ccncc2NC(=O)c2ccc(F)c(-c3c(F)cc(O)cc3F)n2)C1` [Example 32, N-(4-((1R,3S)-3-aminocyclohexyl)pyridin-3-yl)-6-(2,6-difluoro-4-hydroxyphenyl)-5-fluoropicolinamide], the figures for the pIC50 on Pim3 kinase and at Pim1 kinase were 8.52 and 9.00, respectively.

As for `C[C@@H]1C[C@H](N)C[C@H](c2ccncc2NC(=O)c2ccc(F)c(-c3c(F)ccc(F)c3F)n2)C1` [Example 129, N-(4-((1R,3S,5S)-3-amino-5-methylcyclohexyl)pyridin-3-yl)-5-fluoro-6-(2,3,6-trifluorophenyl)picolinamide], the results for the pIC50 on Pim3 kinase and on Pim1 kinase were 8.70 and 9.00, respectively.

Regarding `C[C@H]1CN(c2ccncc2NC(=O)c2ccc(F)c(-c3ccncc3F)n2)C[C@@H](N)[C@@H]1O` [Example 119, N-(4-((3R,4R,5S)-3-amino-4-hydroxy-5-methylpiperidin-1-yl)pyridin-3-yl)-3,3′-difluoro-2,4′-bipyridine-6-carboxamide], the pIC50 was 8.70 on Pim3 kinase and 9.00 at Pim1 kinase.

On to `N[C@H]1CCC[C@@H](c2ccncc2NC(=O)c2ccc(F)c(-c3cccc(F)c3F)n2)C1` [Example 79, N-(4-((1R,3S)-3-aminocyclohexyl)pyridin-3-yl)-6-(2,3-difluorophenyl)-5-fluoropicolinamide], for which the figures for the negative-log IC50 (pIC50) on Pim3 kinase and at Pim1 kinase were 8.52 and 8.70, respectively.

As for `CC1(C)C[C@H](N)C[C@H](c2ccncc2NC(=O)c2ccc(F)c(-c3c(F)cccc3F)n2)C1` [Example 49, N-(4-((1R,5R)-5-amino-3,3-dimethylcyclohexyl)pyridin-3-yl)-6-(2,6-difluorophenyl)-5-fluoropicolinamide], the values for the pIC50 on Pim3 kinase and on Pim1 kinase were 8.70 and 9.00, respectively.
